Data as given in EP4644383A1 (Jiangsu Yahong Meditech Co., Ltd., priority 2022, dated 2024).
Like-named read-outs stand apart in the source and are kept apart here.

Experiments:
Assay type in all cases: biochemical
FGFR1 = biological target: T1, FGFR1 (Homo sapiens, UniProt P11362); experiment: FGFR1 kinase activity inhibition assay (LanthaScreen TR-FRET)
T1 construct: cytoplasmic domain [398-822 (terminal) amino acids]; purchased Carna 08-133
Summary of the method: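 Emission ratio 520 nm/495 nm by TR-FRET after stopping reaction with 10 mM EDTA and 60 min incubation at 22°C. Inhibition normalized between no-enzyme (min) and DMSO (max) controls, then fitted to a four-parameter curve (Top, Bottom, HillSlope).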

FGFR2 = biological target: T2, FGFR2 (Homo sapiens, UniProt P21802); experiment: FGFR2 kinase activity inhibition assay (LanthaScreen TR-FRET)
T2 construct: FGFR2's cytoplasmic domain [399-821 (terminal) amino acids]; purchased Carna 08-134
T2 sequence (P21802 399-821): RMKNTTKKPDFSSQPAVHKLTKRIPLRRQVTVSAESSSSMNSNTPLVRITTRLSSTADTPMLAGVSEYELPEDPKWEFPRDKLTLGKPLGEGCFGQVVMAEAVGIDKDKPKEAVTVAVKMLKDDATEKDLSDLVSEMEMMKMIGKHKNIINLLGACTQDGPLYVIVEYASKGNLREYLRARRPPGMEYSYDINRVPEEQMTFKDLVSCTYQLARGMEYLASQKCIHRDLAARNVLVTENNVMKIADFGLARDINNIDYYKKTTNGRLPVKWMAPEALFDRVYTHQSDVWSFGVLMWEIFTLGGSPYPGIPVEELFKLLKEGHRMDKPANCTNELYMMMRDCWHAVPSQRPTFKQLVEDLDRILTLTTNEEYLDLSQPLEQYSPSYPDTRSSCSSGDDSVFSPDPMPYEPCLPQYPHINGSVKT
Method: (§1) FGFR1 kinase activity was measured using Invitrogen LanthaScreen™ assay technology, which utilized fluorescently-labeled peptides and terbium-labeled antibodies to directly measure an amount of the phosphorylated substrate through time-resolved fluorescence energy transfer (TR-FRET). • ① The test compounds were diluted: starting from a concentration of 1 µM, with a buffer solution in a three-fold serial dilution, the buffer solution being composed of 50 mM HEPES, 10 mM MgCl2, 0.01% TritonX-100, 0.01% BSA, 4 mM DTT (pH 7.5), and 1% DMSO; • ② 0.01 nM recombinant human GST fusion protein FGFR1's cytoplasmic domain [398-822 (terminal) amino acids] (Carna: 08-133) was formulated into a 2 × solution, mixed well with the test compounds, and incubated at 23°C for 10 minutes; • ③ 28 nM Fluorescein-Poly GT peptide substrate (Life Technologies: PV3611) and 28 µM ATP were formulated into a 2 × solution, mixed well with the test compounds and enzyme in ②, and incubated at 23°C for 30 minutes; • ④ 10 µL of 2nM Tb-PY20 antibody (Life Technologies: PV3552) and 10 mM EDTA were added to quench the kinase reaction, and incubated at 22°C for 60 minutes. • ⑤ The reaction was measured using a PerkinElmer EnVision multimode plate reader through TR-FRET dual wavelength detection. • 1. The RFU values were copied from the Envision program. • 2. The ratio of RFU 520nm/RFU 495nm was calculated. • 3. The value of the ratio was converted to a percentage inhibition value. % Inhibition = (max-data)/(max-min) × 100 [formula]
(§2) "Min" represents the ratio of the control without enzyme, "max" represents the ratio of the DMSO control, and "data" represents the ratio of the compounds in wells with different concentrations.
(§3) "Top" refers to the maximum response, "Bottom" refers to the minimum response, and "HillSlope" refers to the slope of the curve.
According to the same method as that in the FGFR1 kinase activity inhibition assay, the inhibitory activities against FGFR2, FGFR3 and FGFR4 were tested using FGFR2's cytoplasmic domain [399-821 (terminal) amino acids] (Carna: 08-134), FGFR3's cytoplasmic domain [436-806 (terminal) amino acids] (Carna: 08-135) and FGFR4's cytoplasmic domain [460-802 (terminal) amino acids] (Carna: 08-136), respectively. […]

FGFR3 = biological target: T3, FGFR3 (Homo sapiens, UniProt P22607); experiment: FGFR3 kinase activity inhibition assay (LanthaScreen TR-FRET); conditions: for Selectivity (X) FGFR1/FGFR3: ratio of IC50 FGFR1/FGFR3, selectivity towards FGFR3; for Selectivity (X) FGFR2/FGFR3: ratio of IC50 FGFR2/FGFR3, selectivity towards FGFR3; for Selectivity (X) FGFR4/FGFR3: ratio of IC50 FGFR4/FGFR3, selectivity towards FGFR3
T3 construct: FGFR3's cytoplasmic domain [436-806 (terminal) amino acids]; purchased Carna 08-135
T3 sequence (P22607 436-806): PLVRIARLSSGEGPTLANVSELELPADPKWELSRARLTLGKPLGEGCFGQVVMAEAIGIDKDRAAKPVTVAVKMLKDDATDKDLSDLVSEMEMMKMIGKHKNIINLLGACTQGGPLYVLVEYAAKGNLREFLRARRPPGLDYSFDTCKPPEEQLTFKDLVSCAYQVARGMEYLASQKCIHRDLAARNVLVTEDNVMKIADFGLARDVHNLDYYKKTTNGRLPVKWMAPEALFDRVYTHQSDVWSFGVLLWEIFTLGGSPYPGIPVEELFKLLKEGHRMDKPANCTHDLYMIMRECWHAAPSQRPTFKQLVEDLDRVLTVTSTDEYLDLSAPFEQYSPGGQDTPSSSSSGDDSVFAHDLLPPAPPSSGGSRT
Summary of the method: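 Read-out is TR-FRET, with the 520 nm/495 nm emission ratio normalised to DMSO (max) and enzyme-free (min) controls. Enzyme was the FGFR3 cytoplasmic domain, residues 436-806. EDTA (10 mM) stopped the reaction, followed by 60 min at 22 °C before reading.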

FGFR4 = biological target: T4, FGFR4 (Homo sapiens, UniProt P22455); experiment: FGFR4 kinase activity inhibition assay (LanthaScreen TR-FRET)
T4 construct: FGFR4's cytoplasmic domain [460-802 (terminal) amino acids]; purchased Carna 08-136
T4 sequence (P22455 460-802): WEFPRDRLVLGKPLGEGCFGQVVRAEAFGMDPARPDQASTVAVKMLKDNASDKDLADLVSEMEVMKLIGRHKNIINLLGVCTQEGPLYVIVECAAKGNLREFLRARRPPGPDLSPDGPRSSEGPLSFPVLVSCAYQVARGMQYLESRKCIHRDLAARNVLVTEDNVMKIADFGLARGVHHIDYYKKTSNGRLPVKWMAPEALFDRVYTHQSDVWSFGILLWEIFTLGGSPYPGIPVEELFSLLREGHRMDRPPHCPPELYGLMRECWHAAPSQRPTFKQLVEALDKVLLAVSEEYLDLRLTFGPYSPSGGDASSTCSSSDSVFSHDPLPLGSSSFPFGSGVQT
Method: as §1, §2, §3
According to the same method as that in the FGFR1 kinase activity inhibition assay, the inhibitory activities against FGFR2, FGFR3 and FGFR4 were tested using FGFR2's cytoplasmic domain [399-821 (terminal) amino acids] (Carna: 08-134), FGFR3's cytoplasmic domain [436-806 (terminal) amino acids] (Carna: 08-135) and FGFR4's cytoplasmic domain [460-802 (terminal) amino acids] (Carna: 08-136), respectively. Table 1 reports the kinase activity inhibition results and selectivity towards FGFR3 of each compound.

[1] = FGFR1 kinase, TR-FRET, read-out: IC50 (nM) FGFR1
[2] = FGFR2 kinase, TR-FRET, read-out: IC50 (nM) FGFR2
[3] = FGFR3 kinase, TR-FRET, read-out: IC50 (nM) FGFR3
[4] = FGFR4 kinase, TR-FRET, read-out: IC50 (nM) FGFR4

T1 sequence (P11362 398-822): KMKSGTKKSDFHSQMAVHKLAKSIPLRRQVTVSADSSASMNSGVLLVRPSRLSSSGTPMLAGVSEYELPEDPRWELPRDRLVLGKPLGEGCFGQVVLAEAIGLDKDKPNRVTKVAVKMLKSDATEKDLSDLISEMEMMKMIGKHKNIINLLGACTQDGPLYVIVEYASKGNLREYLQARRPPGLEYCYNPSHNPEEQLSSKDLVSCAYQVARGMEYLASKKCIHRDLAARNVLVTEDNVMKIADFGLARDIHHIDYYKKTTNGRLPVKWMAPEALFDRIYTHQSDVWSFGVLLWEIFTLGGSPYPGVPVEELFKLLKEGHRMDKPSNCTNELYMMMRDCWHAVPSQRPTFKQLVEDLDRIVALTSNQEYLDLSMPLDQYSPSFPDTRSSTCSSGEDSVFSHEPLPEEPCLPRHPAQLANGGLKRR

SMILES | IC50 (FGFR1; [1]) [nM] | IC50 (FGFR2; [2]) [nM] | IC50 (FGFR3; [3]) [nM] | Selectivity (X) FGFR1/FGFR3 (FGFR3) | Selectivity (X) FGFR2/FGFR3 (FGFR3) | Selectivity (X) FGFR4/FGFR3 (FGFR3) | IC50 (FGFR4; [4]) [nM] | IC50 (FGFR1) [nM] | IC50 (FGFR2) [nM] | IC50 (FGFR3) [nM] | IC50 (FGFR4) [nM]
[2H]C([2H])([2H])C(Oc1ccc2[nH]nc(-c3cnn(C)c3)c2c1)c1c(C)ccc2ncccc12 (stereo not drawn) [Example 122, 6-methyl-5-(1-((3-(1-methyl-1H-pyrazol-4-yl)-1H-indazol-5-yl)oxy)ethyl-2,2,2-d3)quinoline] | 10 to 100 | 1 to 10 | < 1 | B (B represents 20 ≤ multiple X<50) | A (A represents 1 ≤ multiple X<20) | B (B represents 20 ≤ multiple X<50) | 10 to 100 |  |  |  | 
C[C@@H](Oc1ccc2[nH]nc(-c3cnn(C4CCN(C(=O)CO)C4)c3)c2n1)c1c(Cl)cncc1Cl (stereo partly drawn) [Example 59, 1-(3-(4-(5-((R)-1-(3,5-dichloropyridin-4-yl)ethoxy)-1H-pyrazolo[4,3-b]pyridin-3-yl)-1H-pyrazol-1-yl)pyrrolidin-1-yl)-2-hydroxyethan-1-one] | 1 to 10 | < 1 | < 1 | A (A represents 1 ≤ multiple X<20) | A (A represents 1 ≤ multiple X<20) | B (B represents 20 ≤ multiple X<50) | 10 to 100 |  |  |  | 
CC(Oc1ccc2[nH]nc(-c3cnn(C)c3)c2c1)c1cc(F)cc2nccnc12 (stereo not drawn) [Example 142, 7-fluoro-5-(1-((3-(1-methyl-1H-pyrazol-4-yl)-1H-indazol-5-yl)oxy)ethyl)qu inoxaline] | 1 to 10 | 1 to 10 | < 1 | A (A represents 1 ≤ multiple X<20) | A (A represents 1 ≤ multiple X<20) | B (B represents 20 ≤ multiple X<50) | 10 to 100 |  |  |  | 
Cc1cc(O[C@H](C)c2c(Cl)cncc2Cl)cc2c(-c3cnn(C)c3)n[nH]c12 [Example 2, (R)-5-(1-(3,5-dichloropyridin-4-yl)ethoxy)-7-methyl-3-(1-methyl-1H-pyrazol-4-yl)-1H-indazole] | > 100 | 10 to 100 | 1 to 10 | B (B represents 20 ≤ multiple X<50) | A (A represents 1 ≤ multiple X<20) | B (B represents 20 ≤ multiple X<50) | > 100 |  |  |  | 
C[C@@H](Oc1ccc2[nH]nc(-c3cnn(Cc4cccnc4)c3)c2n1)c1c(Cl)cncc1Cl [Example 28, (R)-5-(1-(3,5-dichloropyridin-4-yl)ethoxy)-3-(1-(pyridin-3-ylmethyl)-1H-pyrazol-4-yl)-1H-pyrazolo[4,3-b]pyridine] |  |  |  | A (A represents 1 ≤ multiple X<20) | A (A represents 1 ≤ multiple X<20) | A (A represents 1 ≤ multiple X<20) |  | 1 to 10 | < 1 | < 1 | 1 to 10
COC1(C(=O)N2CC(n3cc(-c4n[nH]c5ccc(OC(C)c6cc(Cl)cc7nccnc67)cc45)cn3)C2)CC1 (stereo not drawn) [Example 223, (3-(4-(5-(1-(7-chloroquinoxalin-5-yl)ethoxy)-1H-indazol-3-yl)-1H-pyrazol-1-yl)azetidin-1-yl)(1-methoxycyclopropyl)methanone] | 10 to 100 | 10 to 100 | < 1 | B (B represents 20 ≤ multiple X<50) | B (B represents 20 ≤ multiple X<50) | D (D represents 100 ≤ multiple X) | > 100 |  |  |  | 
CC(C)c1ccc2ncccc2c1C(C)Oc1ccc2[nH]nc(-c3cnn(C)c3)c2c1 (stereo not drawn) [Example 107, 6-isopropyl-5-(1-((3-(1-methyl-1H-pyrazol-4-yl)-1H-indazol-5-yl)oxy)ethyl)qu inoline] | > 100 | 10 to 100 | 1 to 10 | B (B represents 20 ≤ multiple X<50) | A (A represents 1 ≤ multiple X<20) | B (B represents 20 ≤ multiple X<50) | > 100 |  |  |  | 
CC(Oc1ccc2[nH]nc(-c3cnn(C)c3)c2c1)c1cc(F)cc2ncccc12 (stereo not drawn) [Example 124, 7-fluoro-5-(1-((3-(1-methyl-1H-pyrazol-4-yl)-1H-indazol-5-yl)oxy)ethyl)qu inoline] | 10 to 100 | 1 to 10 | < 1 | B (B represents 20 ≤ multiple X<50) | A (A represents 1 ≤ multiple X<20) | B (B represents 20 ≤ multiple X<50) | 10 to 100 |  |  |  | 
CNC1(C(=O)N2CC(n3cc(-c4n[nH]c5ccc(OC(C)c6cc(Cl)cc7nccnc67)cc45)cn3)C2)CC1 (stereo not drawn) [Example 212, (3-(4-(5-(1-(7-chloroquinoxalin-5-yl)ethoxy)-1H-indazol-3-yl)-1H-pyrazol-1-yl)azetidin-1-yl)(1-(methylamino)cyclopropyl)metha none] | 10 to 100 | 1 to 10 | < 1 | B (B represents 20 ≤ multiple X<50) | B (B represents 20 ≤ multiple X<50) | D (D represents 100 ≤ multiple X) | 10 to 100 |  |  |  | 
C[C@@H](Oc1cc(F)c2[nH]nc(-c3cnn(CCN4CCCCC4)c3)c2c1)c1c(Cl)cncc1Cl [Example 23, (R)-5-(1-(3,5-dichloropyridin-4-yl)ethoxy)-7-fluoro-3-(1-(2-(piperidin-1-yl)ethyl)-1H-pyrazol-4-yl)-1H-indazole] | 10 to 100 | 1 to 10 | 1 to 10 | B (B represents 20 ≤ multiple X<50) | A (A represents 1 ≤ multiple X<20) | D (D represents 100 ≤ multiple X) | > 100 |  |  |  | 
Cc1cc(C(C)Oc2ccc3[nH]nc(-c4cnn(C5CN(C(=O)C(C)(C)O)C5)c4)c3c2)c2cccnc2c1 (stereo not drawn) [Example 213, 2-hydroxy-2-methyl-1-(3-(4-(5-(1-(7-methylquinolin-5-yl)ethoxy)-1H-indazol-3-yl)-1H-pyrazol-1-yl)azetidin-1-yl)propan-1-one] | 10 to 100 | 1 to 10 | < 1 | C (C represents 50 ≤ multiple X<100) | A (A represents 1 ≤ multiple X<20) | C (C represents 50 ≤ multiple X<100) | 10 to 100 |  |  |  | 
Cc1cc(O[C@H](C)c2c(Cl)cncc2Cl)cc2c(-c3cnn(CCN4CCOCC4)c3)n[nH]c12 [Example 27, (R)-4-(2-(4-(5-(1-(3,5-dichloropyridin-4-yl)ethoxy)-7-methyl-1H-indazol-3-yl)-1H-pyrazol-1-yl)ethyl)morpholine] | > 100 | 10 to 100 | 1 to 10 | B (B represents 20 ≤ multiple X<50) | A (A represents 1 ≤ multiple X<20) | C (C represents 50 ≤ multiple X<100) | > 100 |  |  |  | 
